# Laboratory results taken from patent publication US12435061B2 (priority 2020, dated 2025).
# pIC50: −log10 of the molar value.
# Key:
# [1] = biological target: T1, hTRPV3 (Homo sapiens (Human), UniProt Q8NET8); assay: FLIPR Assay (calcium flux, HEK293 cells stably expressing TRPV3); type: cell-based; conditions: for pIC50: read-out: FLIPR IC50
# Protocol: In Tables 3 and 4, Phase 1 refers to Phase 1 current for human (h) TRPV3 or rat (r) TRPV3, and Phase 2 refers to Phase 2 current for human (h) TRPV3 or rat (r) TRPV3. The hTRPV3 and rTRPV3 assays were performed as described herein. hERG refers to the inhibition the human ERG (hERG) channel. NaV1.5, refers to the pore forming aL-subunit of the voltage-dependent cardiac Na(+) channel and is an integral membrane protein involved in the initiation and conduction of action potentials. hTRPV3 HAMA IC50 refers to the IC50 of TRPV3 cells stably expressed in TRex-293 cells. Solubility Ringer refers to the compounds' solubility in Ringer's solution. LM T1/2 refers to liver microsome half-lives in either rat or human liver microsomes. FLIPR IC50 refers to the IC50 of the test compounds against recombinant hTRPV3 cells.
# The cells were treated with IBSS and 20 mM HEPES adjusted to pH 7.4 in the presence of the fluorescent calcium indicator e.g. Fluo-4AM (5 uM) and the plates were incubated at 37° C. and […] for approximately 1 hour and cooled to room temperature. […] Relative Fluorescence Units (RFU) were measured for each response for signal maximum minus minimum during approximately 90 seconds after addition.
# [2] = biological target: T1, hTRPV3; assay: hTRPV3 HAMA IC50 assay (Hamamatsu FDSS6000 calcium flux, TRex-293 cells); conditions: read-out: hTRPV3 HAMA IC50; 2-APB stimulated calcium flux
# Protocol: IC50s were calculated using CBIS from ChemInnovation (San Diego).
# [3] = Aqueous solubility assay in Normal Ringer Solution; conditions: Normal Ringer Solution, saline or isotonic, kinetic from dmso stock
# Protocol: Following vortex and incubation for a sufficient time (e.g. 40 minutes at room temperature), solutions were filtered, quenched with acetonitrile, and analyzed by Liquid Chromotography. Solubility Limits were determined by comparison to a standard curve.
# T1 sequence (Q8NET8 whole entry): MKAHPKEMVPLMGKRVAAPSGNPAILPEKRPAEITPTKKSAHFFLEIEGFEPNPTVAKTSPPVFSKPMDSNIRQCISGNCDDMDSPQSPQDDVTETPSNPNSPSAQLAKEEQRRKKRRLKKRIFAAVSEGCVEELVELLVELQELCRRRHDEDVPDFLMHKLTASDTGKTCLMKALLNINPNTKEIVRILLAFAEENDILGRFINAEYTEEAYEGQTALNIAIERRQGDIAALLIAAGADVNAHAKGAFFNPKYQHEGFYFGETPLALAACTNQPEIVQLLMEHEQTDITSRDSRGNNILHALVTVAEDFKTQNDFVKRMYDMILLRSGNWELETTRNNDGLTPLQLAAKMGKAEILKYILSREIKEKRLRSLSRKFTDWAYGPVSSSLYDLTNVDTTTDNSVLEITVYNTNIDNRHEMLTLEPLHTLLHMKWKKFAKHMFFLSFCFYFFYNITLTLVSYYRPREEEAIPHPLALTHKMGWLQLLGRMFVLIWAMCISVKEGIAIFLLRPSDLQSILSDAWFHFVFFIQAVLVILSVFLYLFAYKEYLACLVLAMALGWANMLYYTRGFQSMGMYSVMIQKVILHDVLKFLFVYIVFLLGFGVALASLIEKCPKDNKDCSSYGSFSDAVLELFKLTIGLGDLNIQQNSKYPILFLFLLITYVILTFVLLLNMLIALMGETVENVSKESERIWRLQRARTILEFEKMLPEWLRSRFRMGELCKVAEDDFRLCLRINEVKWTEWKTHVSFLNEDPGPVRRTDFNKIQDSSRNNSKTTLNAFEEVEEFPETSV
Structure (SMILES),pIC50 [1],other results
Cc1nnc(C(=O)N2CCC(c3ccc(-c4ccccc4C4CC4)cc3CO)C2)cc1O (stereo not drawn) [Compound 2-142],< 5.00,
Cc1nc(C(=O)N2CCC(c3ccc(-c4ccccc4C4CC4)cc3CO)C2)ccc1O (stereo not drawn) [Compound 2-143],,IC50 ([1]; FLIPR IC50 (uM)): 0.86 µM; pIC50 [2]: 7.99; solubility at 40 min [3]: 0.0183 µM
Cc1nc(C(=O)N2CCC(c3ccc(-c4ccccc4C4CC4)cc3CO)C2)ccc1CO (stereo not drawn) [Compound 2-144],5.49,
O=C(c1ncc(Cl)cn1)N1CCC(c2ccc(-c3ccccc3C3CC3)cc2CO)C1 (stereo not drawn) [Compound 2-159],5.29,
O=C(c1csc(CO)n1)N1CCC(c2ccc(-c3ccccc3C3CC3)cc2CO)C1 (stereo not drawn) [Compound 2-160],< 5.00,
Cn1cnc(C(=O)N2CCC(c3ccc(-c4ccccc4C4CC4)cc3CO)C2)c1 (stereo not drawn) [Compound 2-161],5.02,
O=C(c1cc2n(n1)CCC2)N1CCC(c2ccc(-c3ccccc3C3CC3)cc2CO)C1 (stereo not drawn) [Compound 2-162],5.28,
Cn1ccc(C(=O)N2CCC(c3ccc(-c4ccccc4C4CC4)cc3CO)C2)n1 (stereo not drawn) [Compound 2-163],< 5.00,
Cn1ccnc1C(=O)N1CCC(c2ccc(-c3ccccc3C3CC3)cc2CO)C1 (stereo not drawn) [Compound 2-164],< 5.00,
CN1CCc2nc(C(=O)N3CCC(c4ccc(-c5ccccc5C5CC5)cc4CO)C3)sc2C1 (stereo not drawn) [Compound 2-165],< 5.00,
CCc1oc(C(=O)N2CCC(c3ccc(-c4ccccc4C4CC4)cc3CO)C2)nc1C (stereo not drawn) [Compound 2.145],5.35,
Cc1coc(C(=O)N2CCC(c3ccc(-c4ccccc4C4CC4)cc3CO)C2)n1 (stereo not drawn) [Compound 2.146],5.23,
Cc1ocnc1C(=O)N1CCC(c2ccc(-c3ccccc3C3CC3)cc2CO)C1 (stereo not drawn) [Compound 2.148],5.53,
O=C(c1nccnc1O)N1CCC(c2ccc(-c3ccccc3C3CC3)cc2CO)C1 (stereo not drawn) [Compound 2.150],< 5.00,
COc1cncc(C(=O)N2CCC(c3ccc(-c4ccccc4C4CC4)cc3CO)C2)n1 (stereo not drawn) [Compound 2.151],6.11,
O=C(c1cccc(CO)n1)N1CCC(c2ccc(-c3ccccc3C3CC3)cc2CO)C1 (stereo not drawn) [Compound 2.152],5.34,
O=C(c1cc(CO)ccn1)N1CCC(c2ccc(-c3ccccc3C3CC3)cc2CO)C1 (stereo not drawn) [Compound 2.154],5.38,
COCc1ccnc(C(=O)N2CCC(c3ccc(-c4ccccc4C4CC4)cc3CO)C2)c1 (stereo not drawn) [Compound 2.155],5.03,
COc1cnc(C(=O)N2CCC(c3ccc(-c4ccccc4C4CC4)cc3CO)C2)nc1 (stereo not drawn) [Compound 2.158],5.21,
